Patent US20040042984A1, “Skin whitening composition containing arbutin and glucosidase as active ingredients” (priority 2001, published 2004)

Legend:
[1] = Stability of the mixed composition by decoloration (absorbance at 400 nm); type: physicochemical; settings: for Absorbance (400 nm): 100 mM, reacted 37° C. 10 minutes pH 5.0, TCA, supernatant incubated at 37° C. for 24 hours; for Discoloration rate (% of decoloring of hydroquinone solution): hydroquinone solution regarded as 100%, 37° C. for 24 hours
Procedure: The absorbency was measured at 400 nm and the degree of discoloring can be expressed in the ratio of the extent of arbutin solution to that of hydroquinone solution.
The formula stability of arbutin-glucosidase mixed formula compared with the hydroquinone only formula was examined by the decoloration. 100 mM arbutin and each 1, 10 and 20 unit/ml glucosidase were reacted in 1 ml of sodium acetate buffer (pH 5.0) at 37° C. for 10 minutes. The reaction was terminated by cooling down in the ice water. Then its mixed 1 ml of cold 20% Trichloroacetic acid (TCA) was added to remove glucosidase activity. The mixture was centrifuged at 12000 rpm. The supernatant solution incubated at 37° C. for 24 hours and the absorbency was measured at […]. The degree of decoloration of hydroquinone was regarded as 100% and the ratio of other samples compared to hydroquinone were calculated. As the control, 100 mM arbutin and 100 mM hydroquinone solution (sigma, USA) was used.

[2] = tested on: skin of the lower part of the volunteers' arms; test: Occlusive patch test for primary skin irritation; type: in vivo, human; design: Response 24 h / Response 48 h: key to the marks not given beside the values; settings: for skin irritation (in words): occlusive patch test
Procedure: In another preferred embodiments of this invention, the safety of this composition was tested by skin-irritation against the occlusive patch applied to healthy-adult volunteers. […] It is interpreted that the skin is more adaptable to the gradually increasing amount of irritant than the high concentration of irritant at a time.
The occlusive patch test was performed to examine skin irritation of the mixture of arbutin and glucosidase by 30 healthy adults. The test patches containing the solution of arbutin and glucosidase of preferred embodiment 2 were applied to the lower part of the volunteers' arms. After 24 hours, the patches were removed. The status of skin was observed from 30 minutes to 48 hours after removing the patches, and the degree of irritation has been classified as described in Table 3a.

Oc1ccc(O)cc1 [Hydroquinone solution, Hydroquinone]
Absorbance (400 nm) [1]: 0.356 | Discoloration rate (% of decoloring of hydroquinone solution) [1]: 100% | skin irritation (in words) [2]: very strong skin irritation | skin irritation (in words) ([2]; listed as hydroquinone composition): showed the positive irritation | Response 24 h ([2]; occlusive patch, 30 healthy adults, 24 h): +++ | Response 48 h ([2]; occlusive patch, 30 healthy adults, 48 h): +++

OC[C@H]1O[C@@H](Oc2ccc(O)cc2)[C@H](O)[C@@H](O)[C@@H]1O [Arbutin solution, Arbutin]
Absorbance (400 nm) [1]: 0.005 | Discoloration rate (% of decoloring of hydroquinone solution) [1]: 1.40%
